Assays:
[1] = tested on: human peripheral blood mononuclear cells (PBMC); experiment: TNF production from LPS-treated human PBMC, CBA (Example 5); assay type: cell-based; settings: Table 21
Method: (§1) Peripheral blood was drawn from healthy volunteers (with approval from the relevant ethical committee in Denmark). Heparinized blood was diluted 1/1 v/v with RPMI and were subjected to Ficoll density centrifugation within 2 h of drawing. Plasma was collected from the top from individual donors and was kept on ice until it was used at 2% in the culture medium (autologous culture medium). Isolated PBMC were resuspended in autologous culture medium and seeded in 96-well culture plates with 255.000 cells per well in a total of 200 μl. […] The concentrations used for stimulation were optimized on 3 different donors in initial experiments, for LPS two different concentrations were used to be sure to be on a cytokine level that is possible to modulate. In some experiments PBMC were treated with Dexamethason and Indomethacin alone and together with LPS or LTA as a control on downregulation of inflammatory cytokines. The supernatants were collected after incubation at 37° C. for 24 hours, and stored at −80° C. until cytokine measurement. Viability was measured by Alamar Blue (Biosource, DALL 1100) in all experiments and in some cases also by MTS (Promega) according to manufacturer's instruction and was in some experiments also judged by counting of the cells by a Nucleocounter.
(§2) Cytokine production in supernatants was measured by flow cytometry with a human inflammation cytometric bead array (CBA) according to manufacturer's instructions (BD) on a FACSarray flow cytometer. The following cytokines were measured: IL-8, IL-1β, IL-10, TNF, IL-12 p70, IL-6. In some experiments, cytokines were measured by ELISA kits from R&D systems (IL-10, TNF-α, IL-1β) according to the manufacturer′ instruction.
(§3) Example 5 was carried out essentially as described in Example 4.
(§4) In each table, all samples were tested on the same donor. SD means standard deviation.

[2] = tested on: human peripheral blood mononuclear cells (PBMC); experiment: IL-10 production from LPS-treated human PBMC, CBA (Example 5); assay type: cell-based; settings: for IL-10 / IL-10 % of control: Table 22
Method: as §1, §2, §4

[3] = tested on: human peripheral blood mononuclear cells (PBMC); experiment: IL-1β production from LPS-treated human PBMC, CBA (Example 5, Table 23); assay type: cell-based
Method: as §1, §2, §3, §4

human PBMC = experiment: Toxicity to human PBMC (Example 5); assay type: cell-based
Method: as §1, §3

[4] = tested on: human peripheral blood mononuclear cells (PBMC); experiment: TNF production from LPS-treated human PBMC, CBA (Example 7, Table 26); assay type: cell-based
Method: as §1, §2
(§5) Example 7 was carried out essentially as described in Example 4 for human PBMCs. […] The amino acid sequence of mBD3 is shown in SEQ ID NO:6. Mouse PBMCs were prepared as described below.

[5] = tested on: mouse peripheral blood mononuclear cells (PBMC); experiment: TNF production from LPS-treated mouse PBMC, CBA (Example 7); assay type: cell-based, mouse (NMRI)
Method: as §5
Mouse peripheral blood mononuclear cells were isolated from blood of ten NMRI mice. In short, heparinized blood was diluted 1/1 v/v with RPMI and subjected to Ficoll density centrifugation within 2 h of drawing. Plasma was collected from the top and discarded. Isolated PBMC were resuspended in culture medium (RPMI 1640 (Gibco, 42401) w/ 1% penicillin and streptomycin and 1% L-Glutamine) and seeded in 96-well culture plates with 115.500 cells per well in a total of 200 μl. […] The supernatants were collected after incubation at 37° C. for 24 hours, and stored at −80° C. until cytokine measurement.
Cytokine production in supernatants was measured by flow cytometry with a mouse inflammation cytometric bead array (CBA) according to manufacturer's instructions (BD) on a FACSarray flow cytometer.

[6] = LPS 0.6 ng/ml, test compound 1 μg/ml
[7] = LPS 20 ng/ml, test compound 1 μg/ml
[8] = Medium (no LPS), test compound 1 μg/ml
[9] = LPS 0.6 ng/ml, test compound 10 μg/ml
[10] = LPS 20 ng/ml, test compound 10 μg/ml
[11] = Medium (no LPS), test compound 10 μg/ml

Q: How did the TNF ([1]; 1 μg/ml, LPS 0.6 ng/ml) turn out when “hBD3: human beta defensin 3 (SEQ ID NO:3), prepared using chemical synthesis” was run?
A: The TNF was 528 pg/mL.

Q: What about the “TNF % of control” value ([1]; 1 μg/ml, LPS 0.6 ng/ml) of the same substance?
A: Its value is 73%.

Q: And the TNF ([1]; 1 μg/ml, LPS 20 ng/ml)?
A: The TNF was 451 pg/mL.

Q: What about the “TNF % of control” value ([1]; 1 μg/ml, LPS 20 ng/ml) of the same substance?
A: The value was 21%.

Q: What about the TNF ([1]; 1 μg/ml, Medium) of the same substance?
A: The TNF was 0 pg/mL.

Q: What about the IL-10 ([2]; 1 μg/ml, LPS 0.6 ng/ml) of the same substance?
A: The IL-10 was 71 pg/mL.

Q: What about the “IL-10 % of control” value ([2]; 1 μg/ml, LPS 0.6 ng/ml) of the same substance?
A: The value was 107%.

Q: What about the “IL-10 % of control” value ([2]; 1 μg/ml, LPS 20 ng/ml) of the same substance?
A: The value was 137%.

Q: And the IL-10 ([2]; 1 μg/ml, Medium)?
A: Its IL-10 is 0 pg/mL.

Q: And the IL-1β [3, 6]?
A: Its IL-1β is 331 pg/mL.

Q: And the “IL-1β % of control” value [3, 6]?
A: Its value is 45%.

Q: What about the IL-1β [3, 7] of the same substance?
A: Its IL-1β is 568 pg/mL.

Q: And the “IL-1β % of control” value [3, 7]?
A: Its value is 22%.

Q: What about the IL-1β [3, 8] of the same substance?
A: The IL-1β was 0 pg/mL.

Q: And the “toxicity to the cells” value (human PBMC; 10 μg/ml)?
A: Its value is “toxic to the cells”.

Q: And the “toxicity to the cells” value (human PBMC; 40 μg/ml)?
A: Its value is “toxic to the cells”.

Q: Which TNF ([1]; 1 μg/ml, LPS 0.6 ng/ml) does the source give for “hBD4 variant: consists of amino acids 3-39 of hBD4, SEQ ID NO:5 (ELDRICGYGTARCRKKCRSQEYRIGRCPNTYACCLRK)” here?
A: Its TNF is 468 pg/mL.

Q: What about the “TNF % of control” value ([1]; 1 μg/ml, LPS 0.6 ng/ml) of the same substance?
A: The value was 64%.

Q: And the TNF ([1]; 1 μg/ml, LPS 20 ng/ml)?
A: Its TNF is 778 pg/mL.

Q: And the “TNF % of control” value ([1]; 1 μg/ml, LPS 20 ng/ml)?
A: The value was 36%.

Q: And the TNF ([1]; 1 μg/ml, Medium)?
A: The TNF was 0 pg/mL.

Q: And the TNF ([1]; 10 μg/ml, LPS 0.6 ng/ml)?
A: The TNF was 211 pg/mL.

Q: What about the “TNF % of control” value ([1]; 10 μg/ml, LPS 0.6 ng/ml) of the same substance?
A: The value was 29%.

Q: And the TNF ([1]; 10 μg/ml, LPS 20 ng/ml)?
A: The TNF was 139 pg/mL.

Q: And the “TNF % of control” value ([1]; 10 μg/ml, LPS 20 ng/ml)?
A: Its value is 6%.

Q: And the TNF ([1]; 10 μg/ml, Medium)?
A: The TNF was 0 pg/mL.

Q: And the IL-10 ([2]; 1 μg/ml, LPS 0.6 ng/ml)?
A: The IL-10 was 90 pg/mL.

Q: What about the “IL-10 % of control” value ([2]; 1 μg/ml, LPS 0.6 ng/ml) of the same substance?
A: The value was 136%.

Q: What about the “IL-10 % of control” value ([2]; 1 μg/ml, LPS 20 ng/ml) of the same substance?
A: The value was 157%.

Q: And the IL-10 ([2]; 1 μg/ml, Medium)?
A: Its IL-10 is 0 pg/mL.

Q: What about the IL-10 ([2]; 10 μg/ml, LPS 0.6 ng/ml) of the same substance?
A: Its IL-10 is 92 pg/mL.

Q: And the “IL-10 % of control” value ([2]; 10 μg/ml, LPS 0.6 ng/ml)?
A: The value was 139%.

Q: And the IL-10 ([2]; 10 μg/ml, LPS 20 ng/ml)?
A: Its IL-10 is 187 pg/mL.

Q: And the “IL-10 % of control” value ([2]; 10 μg/ml, LPS 20 ng/ml)?
A: The value was 168%.

Q: And the IL-10 ([2]; 10 μg/ml, Medium)?
A: Its IL-10 is 0 pg/mL.

Q: What about the “Secretion of IL-10” value ([2]; human PBMC with LPS, summary of Table 22) of the same substance?
A: The value was “significantly and dose-dependently enhanced”.

Q: What about the IL-1β [3, 6] of the same substance?
A: The IL-1β was 286 pg/mL.

Q: What about the “IL-1β % of control” value [3, 6] of the same substance?
A: Its value is 39%.

Q: What about the IL-1β [3, 9] of the same substance?
A: The IL-1β was 163 pg/mL.

Q: What about the “IL-1β % of control” value [3, 9] of the same substance?
A: Its value is 22%.

Q: And the IL-1β [3, 7]?
A: The IL-1β was 1004 pg/mL.

Q: And the “IL-1β % of control” value [3, 7]?
A: Its value is 40%.

Q: What about the IL-1β [3, 10] of the same substance?
A: Its IL-1β is 463 pg/mL.

Q: What about the “IL-1β % of control” value [3, 10] of the same substance?
A: The value was 18%.

Q: What about the IL-1β [3, 8] of the same substance?
A: Its IL-1β is 0 pg/mL.

Q: What about the IL-1β [3, 11] of the same substance?
A: The IL-1β was 0 pg/mL.

Q: What about the “toxicity to the cells” value (human PBMC; 40 μg/ml) of the same substance?
A: The value was “toxic to the cells”.

Q: Which results are given for “mBD3: mouse beta defensin 3 (SEQ ID NO:6), prepared with the same protocol as hBD2 (KINNPVSCLRKGGRCWNRCIGNTRQIGSCGVPFLKCCKRK; mat_peptide (1)..(40); listed as Mus musculus)”?
A: TNF [4, 7]: 384 pg/mL; TNF [4, 10]: 51 pg/mL; TNF ([4]; LPS 20 ng/ml, test compound 100 μg/ml): 166 pg/mL; TNF [4, 8]: 2 pg/mL; TNF [4, 11]: 2 pg/mL; TNF ([4]; Medium (no LPS), test compound 100 μg/ml): 39 pg/mL; secretion of TNF ([4]; human PBMCs (Table 26)): downregulating the secretion of TNF from human PBMCs to the same extend as hBD2 and dexamethason; TNF ([5]; 1 μg/ml, LPS 20 ng/ml): 1600 pg/mL; TNF ([5]; 1 μg/ml, Medium): 347 pg/mL; TNF ([5]; 10 μg/ml, LPS 20 ng/ml): 297 pg/mL; TNF ([5]; 10 μg/ml, Medium): 180 pg/mL; TNF ([5]; 100 μg/ml, LPS 20 ng/ml): 195 pg/mL; TNF ([5]; 100 μg/ml, Medium): 182 pg/mL
